The source of these data is US10376523B2, “Aqueous composition containing ripasudil, or a salt, or a solvate thereof” (KOWA COMPANY, LTD., priority 2014, dated 2019).

The conditions of assay [1]: at a concentration of 0.001%; cited from earlier work.
Assay [2] has as its system Candida albicans NERC 1594 strain. The experiment in a line: Test Example 1: growth inhibitory activity on Candida albicans (membrane filter method, colony count). It counts as cell-based. The conditions noted are these: 2 g ripasudil monohydrochloride dihydrate in 270 mL phosphate buffer pH 7.2. The method, then:
In order to examine ripasudil for the presence or absence of growth inhibitory activity on microorganisms (bacteria and fungi), the following tests were performed using Pseudomonas aeruginosa as a bacterium and Candida albicans as a fungus. Two grams of ripasudil monohydrochloride dihydrate were dissolved in 270 mL of phosphate buffer (pH 7.2) to obtain a dilute sample solution. A sample was obtained by mixing 0.5 mL of the test bacterial suspension with 50 mL of the dilute sample solution (note that a mixture of 0.5 mL of the test bacterial suspension and 50 mL of phosphate buffer (pH 7.2) was used as a control sample). […] After the culture, the number of colonies formed was counted (note that the test was performed twice, and an average value was determined). From the determined number of colonies, a growth inhibitory ratio (%) was calculated using the following equation: Growth inhibitory ratio (%)=|(the number of colonies for the control sample−the number of colonies for the sample)|/the number of colonies for the control sample×100 Candida albicans NERC 1594 strain was seeded on the Sabouraud-dextrose liquid medium (Merck Corporation) and cultured at 20 to 25° C. for 44 to 46 hours. […] After the culture, the number of colonies formed was counted (note that the test was performed twice, and an average value was determined). A growth inhibitory ratio (%) was also calculated.

The subject of assay [3] is Pseudomonas aeruginosa NBRC 13275 strain. The experiment in a line: Test Example 1: growth inhibitory activity on Pseudomonas aeruginosa (membrane filter method, colony count). It is filed as cell-based. The following applies: 2 g ripasudil monohydrochloride dihydrate in 270 mL phosphate buffer pH 7.2. The method, then: In order to examine ripasudil for the presence or absence of growth inhibitory activity on microorganisms (bacteria and fungi), the following tests were performed using Pseudomonas aeruginosa as a bacterium and Candida albicans as a fungus. Pseudomonas aeruginosa NBRC 13275 strain was seeded on the soybean-casein digest medium (Merck Corporation) and cultured at 30 to 35° C. for 20 to 22 hours. The culture was then diluted with peptone saline buffer (pH 7.0) to 1,000 CFU/mL or less to obtain a test bacterial suspension. Two grams of ripasudil monohydrochloride dihydrate were dissolved in 270 mL of phosphate buffer (pH 7.2) to obtain a dilute sample solution. A sample was obtained by mixing 0.5 mL of the test bacterial suspension with 50 mL of the dilute sample solution (note that a mixture of 0.5 mL of the test bacterial suspension and 50 mL of phosphate buffer (pH 7.2) was used as a control sample). […] After the culture, the number of colonies formed was counted (note that the test was performed twice, and an average value was determined). From the determined number of colonies, a growth inhibitory ratio (%) was calculated using the following equation: Growth inhibitory ratio (%)=|(the number of colonies for the control sample−the number of colonies for the sample)|/the number of colonies for the control sample×100

Take benzalkonium chloride: the antimicrobial activity result in assay [1] is on record as “sufficient antimicrobial activity is not demonstrated”.

`C[C@H]1CNCCCN1S(=O)(=O)c1cccc2cncc(F)c12` [ripasudil, 4-fluoro-5-[[(2S)-2-methyl-1,4-diazepan-1-yl]sulfonyl]isoquinoline]: the “Number of Formed Colonies, Sample” value is given as 23 in assay [2] (contact 30 minutes or longer, average of two tests, control sample 37 colonies) and 0 in assay [3] (contact 30 minutes or longer, average of two tests, control sample 47 colonies). The results for the “Growth Inhibitory Ratio” value in assay [2] (versus control sample) and in assay [3] (versus control sample) were 37.8% and 100%, respectively.
